{"source": "patent US11331364B2", "about": "“Use for JNK inhibitor molecules for treatment of various diseases” (Xigen Inflammation Ltd., priority 2014, dated 2022)", "key": {"[1]": {"test_system": "Imiquimod-induced psoriasis in mice", "assay": "Imiquimod-induced psoriasis, ear histopathology", "assay_type": "in vivo, mouse", "experimental": "Female BALB/cAnNCrl mice (Charles River, age 8 to 10 weeks at study start) have been assigned to the following groups (treatment schedule):\nIn this experiment, two positive controls have been utilized. Firstly, Prednisolone at 10 mg/kg (vehicle: 1% Hydroxyethylcellulose, 0.25% Polysorbate 80, and 0.05% Antifoam in purified water) has been dosed daily and orally (group “Prednisolone”). Secondly, Dexamethasone has been administered at 0.5 mg/kg (vehicle: sterile 0.9% NaCl) on days 1, 4 and 7 via intravenous route.\nOn day 8, animals have been sacrificed and the tissue (ear) has been fixed in 10% neutral buffered formalin. For histopathology hematoxylin-and-eosin-stained sections (cross cut) have been prepared and microscopic evaluation on the collected tissues from all animals has been performed. Methods and end-points for histopathology were similarly described in the van der Fits (2009) paper in that inflammation, epidermal hyperplasia, epidermal hyperkeratosis (rather than parakeratosis) were observed and recorded for severity grade, whereby the respective methodology from Van der Fits et al. (The Journal of Immunology 2009, 182, P. 5836-5845) is hereby incorporated by reference. Histopathology grading scores were excluded for either skin or ear in animals with secondary inflammatory processes (full thickness epidermal ulcers). Scores were averaged by group and standard deviation and statistical significance were calculated. […] Formalin-fixed, paraffin embedded skin from the dorsal surface of the mouse (BALB/c) was stained with hematoxylin and eosin (H&E) stain and assessed microscopically. An important difference from the above reference and to describe in more detail the observations of the present study: Hyperkeratosis can be defined specifically as orthokeratotic (no retained nuclei) or parakeratotic (retained nuclei). Either can occur normally in various anatomical locations and depending on species; however, both conditions are well defined in particular disease states. The van der Fits paper describes their Imiquimod (IMQ)-induced psoriasis model as causing parakeratotic hyperkeratosis similar to what is seen in the human condition, and that was a defined end-point for this study. However, the Danilenko et al. (Veterinary Pathology 2008 45:563) has shown that many rodent psoriasis models have orthokeratotic hyperkeratosis. […] The more general term ‘hyperkeratosis’ was used for grading end-points and describe in the text what type was seen (primarily orthokeratotic).\nMicroscopic Histopathology end-points were graded as such: […]"}, "[2]": {"test_system": "THP1 differentiated macrophages", "assay": "LPS-induced cytokine release in PMA differentiated THP1 macrophages (ELISA)", "assay_type": "cell-based, human", "experimental": "In the following the procedure will be set forth describing how the released amount of several human cytokines after ligand induced secretion from human cells (Blood, WBC, PBMC, purified primary lymphocytes, cell lines, . . . ) was measured.\nThe technique used is a Sandwich ELISA, which allows measuring the amount of antigen between two layers of antibodies (i.e. capture and detection antibody). The antigen to be measured must contain at least two antigenic sites capable of binding to antibody, since at least two antibodies act in the sandwich. Either monoclonal or polyclonal antibodies can be used as the capture and detection antibodies in Sandwich ELISA systems. Monoclonal antibodies recognize a single epitope that allows fine detection and quantification of small differences in antigen. A polyclonal is often used as the capture antibody to pull down as much of the antigen as possible.\nThe method may be used to determine the effect of the JNK inhibitors of the present invention in vitro/cell culture. At non toxic doses, compound efficacy is indicated by the decrease of the cytokine levels (the variation of optical density (absorbance at 450 nm)) as compared to non-treated samples and is monitored by ELISA. Results are express in ng/ml.\nIn the following the procedure will be set forth describing how cytokine production from human PMA differentiated THP1 cells challenged by LPS for 6 h was induced in order to test the ability of JNK inhibitors of the present invention, in particular of a JNK inhibitor with SEQ ID NO: 172, to reduce stimulation-induced cytokine release. THP1 cells were stimulated ex-vivo by different ligands for the readout of cytokine release. At non toxic doses, JNK inhibitor efficacy is indicated by the decrease of the cytokine levels as compared to non-treated samples and is monitored by ELISA. The toxicity of the compound are evaluated by the reduction of a tretazolium salt (MTS) to formazan, giving a purple colour.\nThe cells were counted. […]"}, "hJNK2": {"target": "hJNK2 (Homo sapiens, UniProt P45984)", "sequence (P45984 whole entry, looked up, the tested form may be a part)": "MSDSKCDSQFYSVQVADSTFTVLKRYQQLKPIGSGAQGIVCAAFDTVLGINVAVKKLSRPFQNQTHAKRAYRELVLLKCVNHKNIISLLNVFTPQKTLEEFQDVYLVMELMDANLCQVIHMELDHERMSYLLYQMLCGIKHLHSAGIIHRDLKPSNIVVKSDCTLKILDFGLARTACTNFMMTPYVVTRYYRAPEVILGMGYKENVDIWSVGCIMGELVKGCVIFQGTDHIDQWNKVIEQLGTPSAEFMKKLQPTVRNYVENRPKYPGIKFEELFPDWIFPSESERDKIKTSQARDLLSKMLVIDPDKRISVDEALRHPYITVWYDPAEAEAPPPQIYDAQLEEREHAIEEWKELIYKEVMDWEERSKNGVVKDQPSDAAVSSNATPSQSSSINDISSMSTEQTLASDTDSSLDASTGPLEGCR", "assay": "hJNK2 | IC50", "settings": "read-out: hJNK2 | IC50", "how_it_was_run": "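JNK inhibitors tested as fusion proteins of a JNK-inhibitory (poly)peptide and a transporter sequence; IC50 reported in the nM range with SEM and number of experiments.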"}}, "note": "“Also recorded” adds a separate entry of the source. Square brackets hold non-standard residues; d marks the D form. Peptide text beside a SMILES is read from it.", "data": [{"smiles": "CC(C)C[C@H](NC(=O)[C@H](CC(N)=O)NC(=O)[C@H](CC(C)C)NC(=O)[C@@H](NC(=O)[C@@H](C)NC(=O)[C@@H]1CCCN1C(=O)[C@H](CCCNC(=N)N)NC(=O)[C@@H](CCCCN)NC(=O)[C@@H]1CCCN1C(=O)[C@H](CCCNC(=N)N)NC(=O)[C@@H](CCCNC(=N)N)NC(=O)[C@H](CCCNC(=N)N)NC(=O)[C@H](CCCNC(=N)N)NC(=O)[C@H](CCC(N)=O)NC(=O)[C@@H](CCCNC(=N)N)NC(=O)[C@H](CCCNC(=N)N)NC(=O)[C@H](CCCCN)NC(=O)[C@H](CCCCN)NC(=O)[C@H](N)CCCNC(=N)N)[C@@H](C)O)C(=O)N[C@H](Cc1ccccc1)C(N)=O", "note": "[SEQ ID NO: 172, rKKRrQRRrRPkRPaTLNLf] (H-[dR]KKR[dR]QRR[dR]RP[dK]RP[dA]TLNL[dF]-NH2; N-terminus assumed)", "values": [{"measurement": "epidermal hyperkeratosis of the ear (average grades)", "setting": "[1]; 0.02 mg/kg IV days 1, 4, 7", "result": "minimally decreased average grades"}, {"measurement": "epidermal hyperplasia of the ear", "setting": "[1]; 0.2 mg/kg IV days 1, 4, 7", "result": "Minimal decreases in epidermal hyperplasia of the ear"}, {"measurement": "inflammation of the ear (average grade) vs vehicle-IMQ", "setting": "[1]; 0.2 mg/kg IV days 1, 4, 7", "result": "decreased inflammation of the ear"}, {"measurement": "inflammation of the ear (average grade) vs vehicle-IMQ", "setting": "[1]; 0.2 mg/kg IV days 1, 4, 7, listed as XG-104", "result": "significant differences from the vehicle control group"}, {"measurement": "inflammation of the ear (average grade) vs vehicle-IMQ", "setting": "[1]; 2 mg/kg IV days 1, 4, 7", "result": "decreased inflammation of the ear"}, {"measurement": "LPS-induced IL6 release", "setting": "[2]; LPS added for 6 h", "result": "higher potency than D-TAT-IB1 (SEQ ID NO: 197), dTAT (SEQ ID NO: 45) and SP 600125; also recorded: higher potency than D-TAT-IB1 (SEQ ID NO: 197) and L-TAT-IB1 (SEQ ID NO: 196)"}, {"measurement": "LPS-induced TNFα release", "setting": "[2]; PMA/THP1 differentiated macrophages, LPS", "result": "higher potency than D-TAT-IB1 (SEQ ID NO: 197), dTAT (SEQ ID NO: 45) and SP 600125; also recorded: higher potency than D-TAT-IB1 (SEQ ID NO: 197) and L-TAT-IB1 (SEQ ID NO: 196)"}, {"measurement": "LPS-induced cytokine and chemokine release", "setting": "[2]; THP1-PMA-differentiated macrophages, TNF, IL 6, MCP1, 6 h LPS", "result": "blocks LPS-induced cytokine and chemokine release"}, {"measurement": "IC50", "setting": "hJNK2", "result": 54.7, "unit": "nM"}]}]}
